Results as given in US9315490B2, “2,5-substituted pyrimidines” (Grünenthal GmbH, priority 2014, dated 2016).

These compounds were tested against T1, human PDE4B1 (Homo sapiens, UniProt Q07343) (assay: TR-FRET assay using the LANCE Ultra cAMP kit to determine the activity of hPDE4B1). Conditions: test concentration 1 μM, read-out: Inhibition in % (inhibition of PDE4B).
T1 construct: host or cells: Sf9 cells
Type: biochemical
Source text: TR-FRET Assay Using the LANCE® Ultra cAMP Kit to Determine the Activity of hPDE4B1
The effects of the compounds on the activity of the human PDE4B1 was quantified by measuring the production of 5′AMP from cAMP using a human recombinant enzyme expressed in Sf9 cells and the LANCE® Ultra cAMP kit, a TR-FRET detection method from PerkinElmer. The human PDE4B1 enzyme was purchased from SignalChem Lifesciences (Catalog# P92-31BG, Lot# H296-2).
The test compound, reference compound or water (control) was mixed with the enzyme (0.96 U) in a reaction buffer containing 50 mM Tris-HCl, 50 mM MgCl2 and 5 mM DTT (pH 8.5). Thereafter, the reaction was initiated by addition of 500 nM cAMP (substrate) and the mixture was incubated for 30 minutes at room temperature. For control basal measurements, the enzyme was omitted from the reaction mixture. After 30 minutes, the reaction was stopped and diluted by a factor of 100 with the reaction buffer supplemented with 500 μM IBMX. The fluorescence donor (europium chelate-labeled cAMP) and the fluorescence acceptor (anti-cAMP antibody labeled with the ULight™ dye) were then added together with 500 μM IBMX to a 10 μl aliquot. After 60 minutes, the fluorescence transfer corresponding to the amount of residual cAMP was measured at λex=337 nm, λem=620 nm and λem=665 nm using a microplate reader (PHERAstar, BMG). The enzyme activity was determined by dividing the signal measured at 665 nm by that measured at 620 nm (ratio) multiplied by 10000. The results were expressed as percent inhibition of the control enzyme activity. IC50 values (IC50=concentration causing a half-maximal inhibition of control specific activity) were derived from dose response measurements with ten different concentrations (n=3; N=1-3).

T1 sequence (Q07343 whole entry): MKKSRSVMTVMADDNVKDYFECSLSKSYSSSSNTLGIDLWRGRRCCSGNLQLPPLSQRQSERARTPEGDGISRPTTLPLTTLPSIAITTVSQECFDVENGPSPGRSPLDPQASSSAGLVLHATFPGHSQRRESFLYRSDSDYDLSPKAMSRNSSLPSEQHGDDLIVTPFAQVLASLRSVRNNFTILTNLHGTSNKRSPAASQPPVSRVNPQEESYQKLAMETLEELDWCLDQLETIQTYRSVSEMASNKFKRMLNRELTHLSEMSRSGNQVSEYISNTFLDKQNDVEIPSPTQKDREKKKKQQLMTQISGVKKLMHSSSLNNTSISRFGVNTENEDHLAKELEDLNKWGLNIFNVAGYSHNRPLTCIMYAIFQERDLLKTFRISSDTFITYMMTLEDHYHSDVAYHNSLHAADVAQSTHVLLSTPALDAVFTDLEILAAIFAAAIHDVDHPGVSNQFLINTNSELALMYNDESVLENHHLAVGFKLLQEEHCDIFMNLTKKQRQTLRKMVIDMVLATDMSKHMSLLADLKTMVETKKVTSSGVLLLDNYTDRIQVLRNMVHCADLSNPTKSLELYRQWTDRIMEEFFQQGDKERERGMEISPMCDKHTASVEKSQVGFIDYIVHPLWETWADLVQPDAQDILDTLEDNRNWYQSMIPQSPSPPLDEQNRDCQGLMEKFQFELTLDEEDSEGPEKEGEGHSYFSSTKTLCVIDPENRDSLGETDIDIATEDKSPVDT

SMILES	inhibition at 1 µM
CCN(C)C(=O)c1ccc2c([S+](C)[O-])cn(-c3ncc(-c4cc(C)ccc4F)cn3)c2c1 (stereo not shown) [Example 266, N-Ethyl-1-(5-(2-fluoro-5-methylphenyl)pyrimidin-2-yl)-N-methyl-3-(methylsulfinyl)-1H-indole-6-carboxamide]	98%
Cc1ccc(F)c(-c2cnc(-n3cc([S+](C)[O-])c4ccc(C(=O)N(C)C)cc43)nc2)c1 (stereo not shown) [Example 267, 1-(5-(2-Fluoro-5-methylphenyl)pyrimidin-2-yl)-N,N-dimethyl-3-(methylsulfinyl)-1H-indole-6-carboxamide]	94%
COc1ccc(F)c(-c2cnc(-n3cc([S+](C)[O-])c4ccc(C(=O)N(C)C)cc43)nc2)c1 (stereo not shown) [Example 268, 1-(5-(2-Fluoro-5-methoxyphenyl)pyrimidin-2-yl)-N,N-dimethyl-3-(methylsulfinyl)-1H-indole-6-carboxamide]	95%
Cc1ccnc(-c2cnc(-n3cc([S+](C)[O-])c4ccc(C(=O)N5CCCC5)cc43)nc2)c1 (stereo not shown) [Example 269, (1-(5-(4-Methylpyridin-2-yl)pyrimidin-2-yl)-3-(methylsulfinyl)-1H-indol-6-yl)(pyrrolidin-1-yl)methanone]	97%
Cc1ccnc(-c2cnc(-n3cc([S+](C)[O-])c4ccc(C(=O)N(C)C)cc43)nc2)c1 (stereo not shown) [Example 270, N,N-Dimethyl-1-(5-(4-methylpyridin-2-yl)pyrimidin-2-yl)-3-(methylsulfinyl)-1H-indole-6-carboxamide]	102%
CCN(C)C(=O)c1ccc2c([S+](C)[O-])cn(-c3ncc(-c4cc(C)ccn4)cn3)c2c1 (stereo not shown) [Example 271, N-Ethyl-N-methyl-1-(5-(4-methylpyridin-2-yl)pyrimidin-2-yl)-3-(methylsulfinyl)-1H-indole-6-carboxamide]	97%
CN(C)C(=O)c1ccc2c([S+](C)[O-])cn(-c3ncc(-c4cc(N(C)C)ccn4)cn3)c2c1 (stereo not shown) [Example 272, 1-(5-(4-(Dimethylamino)pyridin-2-yl)pyrimidin-2-yl)-N,N-dimethyl-3-(methylsulfinyl)-1H-indole-6-carboxamide]	93%
CN(C)C(=O)c1ccc2c([S+](C)[O-])cn(-c3ncc(-c4cc(N)ccn4)cn3)c2c1 (stereo not shown) [Example 273, 1-(5-(4-Aminopyridin-2-yl)pyrimidin-2-yl)-N,N-dimethyl-3-(methylsulfinyl)-1H-indole-6-carboxamide]	91%
CCc1ccc(F)c(-c2cnc(-n3cc([S+](C)[O-])c4ccc(C(=O)N(C)C)cc43)nc2)c1 (stereo not shown) [Example 274, 1-(5-(5-Ethyl-2-fluorophenyl)pyrimidin-2-yl)-N,N-dimethyl-3-(methylsulfinyl)-1H-indole-6-carboxamide]	104%
CCc1ccc(F)c(-c2cnc(-n3cc([S+](C)[O-])c4ccc(C(=O)N5CCCC5)cc43)nc2)c1 (stereo not shown) [Example 275, (1-(5-(5-Ethyl-2-fluorophenyl)pyrimidin-2-yl)-3-(methylsulfinyl)-1H-indol-6-yl)(pyrrolidin-1-yl)methanone]	113%
CCc1ccc(F)c(-c2cnc(-n3cc([S+](C)[O-])c4ccc(C(=O)N5CCOCC5)cc43)nc2)c1 (stereo not shown) [Example 276, (1-(5-(5-Ethyl-2-fluorophenyl)pyrimidin-2-yl)-3-(methylsulfinyl)-1H-indol-6-yl)(morpholino)methanone]	106%
CCc1ccnc(-c2cnc(-n3cc([S+](C)[O-])c4ccc(C(=O)N5CCCC5)cc43)nc2)c1 (stereo not shown) [Example 277, (1-(5-(4-Ethylpyridin-2-yl)pyrimidin-2-yl)-3-(methylsulfinyl)-1H-indol-6-yl)(pyrrolidin-1-yl)methanone]	93%
CCc1ccnc(-c2cnc(-n3cc([S+](C)[O-])c4ccc(C(=O)N(C)C)cc43)nc2)c1 (stereo not shown) [Example 278, 1-(5-(4-Ethylpyridin-2-yl)pyrimidin-2-yl)-N,N-dimethyl-3-(methylsulfinyl)-1H-indole-6-carboxamide]	92%
COc1ccc(F)c(-c2cnc(-n3cc([S+](C)[O-])c4ccc(C(=O)N(C)CC(N)=O)cc43)nc2)c1 (stereo not shown) [Example 279, N-(2-Amino-2-oxoethyl)-1-(5-(2-fluoro-5-methoxyphenyl)pyrimidin-2-yl)-N-methyl-3-(methylsulfinyl)-1H-indole-6-carboxamide]	97%
CCc1ccc(F)c(-c2cnc(-n3cc([S+](C)[O-])c4ccc(C(=O)N(C)CC(N)=O)cc43)nc2)c1 (stereo not shown) [Example 280, N-(2-Amino-2-oxoethyl)-1-(5-(5-ethyl-2-fluorophenyl)pyrimidin-2-yl)-N-methyl-3-(methylsulfinyl)-1H-indole-6-carboxamide]	93%
Cc1ccc(F)c(-c2cnc(-n3cc([S+](C)[O-])c4ccc(C(=O)N(C)CC(N)=O)cc43)nc2)c1 (stereo not shown) [Example 281, N-(2-Amino-2-oxoethyl)-1-(5-(2-fluoro-5-methylphenyl)pyrimidin-2-yl)-N-methyl-3-(methylsulfinyl)-1H-indole-6-carboxamide]	97%
Cc1ccnc(-c2cnc(-n3cc([S+](C)[O-])c4ccc(C(=O)N(C)CC(N)=O)cc43)nc2)c1 (stereo not shown) [Example 282, N-(2-Amino-2-oxoethyl)-N-methyl-1-(5-(4-methylpyridin-2-yl)pyrimidin-2-yl)-3-(methylsulfinyl)-1H-indole-6-carboxamide]	90%
COc1ccnc(-c2cnc(-n3cc([S+](C)[O-])c4ccc(C(=O)N(C)CC(N)=O)cc43)nc2)c1 (stereo not shown) [Example 283, N-(2-Amino-2-oxoethyl)-1-(5-(4-methoxypyridin-2-yl)pyrimidin-2-yl)-N-methyl-3-(methylsulfinyl)-1H-indole-6-carboxamide]	92%
CN(CC(N)=O)C(=O)c1ccc2c([S+](C)[O-])cn(-c3ncc(-c4cc(N(C)C)ccn4)cn3)c2c1 (stereo not shown) [Example 284, N-(2-Amino-2-oxoethyl)-1-(5-(4-(dimethylamino)pyridin-2-yl)pyrimidin-2-yl)-N-methyl-3-(methylsulfinyl)-1H-indole-6-carboxamide]	104%
CCc1ccnc(-c2cnc(-n3cc([S+](C)[O-])c4ccc(C(=O)N(C)CC(N)=O)cc43)nc2)c1 (stereo not shown) [Example 285, N-(2-Amino-2-oxoethyl)-1-(5-(4-ethylpyridin-2-yl)pyrimidin-2-yl)-N-methyl-3-(methylsulfinyl)-1H-indole-6-carboxamide]	91%
CS(=N)(=O)c1cn(-c2ncc(-c3ccccc3F)cn2)c2cc(C(=O)N3CCOCC3)ccc12 (stereo not shown) [Example 287, (1-(5-(2-Fluorophenyl)pyrimidin-2-yl)-3-(S-methylsulfonimidoyl)-1H-indol-6-yl)(morpholino)methanone]	93%
Cc1ccnc(-c2cnc(-n3cc(S(C)(=N)=O)c4ccc(C(=O)N5CCOCC5)cc43)nc2)c1 (stereo not shown) [Example 288, (1-(5-(4-Methylpyridin-2-yl)pyrimidin-2-yl)-3-(S-methylsulfonimidoyl)-1H-indol-6-yl)(morpholino)methanone]	92%
C[S+]([O-])c1cn(-c2ncc(-c3cc(C(C)(C)O)ccn3)cn2)c2cc(C(=O)N3CCOCC3)ccc12 (stereo not shown) [Example 289, (1-(5-(4-(2-Hydroxypropan-2-yl)pyridin-2-yl)pyrimidin-2-yl)-3-(methylsulfinyl)-1H-indol-6-yl)(morpholino)methanone]	93%
CC(O)c1ccnc(-c2cnc(-n3cc([S+](C)[O-])c4ccc(C(=O)N5CCOCC5)cc43)nc2)c1 (stereo not shown) [Example 291, (1-(5-(4-(1-Hydroxyethyl)pyridin-2-yl)pyrimidin-2-yl)-3-(methylsulfinyl)-1H-indol-6-yl)(morpholino)methanone]	90%
C[S+]([O-])c1cn(-c2ncc(-c3cc(C(C)(C)O)ccc3F)cn2)c2cc(C(=O)N3CCOCC3)ccc12 (stereo not shown) [Example 293, (1-(5-(2-Fluoro-5-(2-hydroxypropan-2-yl)phenyl)pyrimidin-2-yl)-3-(methylsulfinyl)-1H-indol-6-yl)(morpholino)methanone]	94%

Same assay, conditions: test concentration 10 μM (marked in cell), read-out: Inhibition in % (inhibition of PDE4B)

SMILES	inhibition at 10 µM
CN(CC(N)=O)C(=O)c1ccc2c([S+](C)[O-])cn(-c3ncc(-c4cc(N)ccn4)cn3)c2c1 (stereo not shown) [Example 286, N-(2-Amino-2-oxoethyl)-1-(5-(4-aminopyridin-2-yl)pyrimidin-2-yl)-N-methyl-3-(methylsulfinyl)-1H-indole-6-carboxamide]	101%
C[S+]([O-])c1cn(-c2ncc(-c3cc(NCC4CC4)ccc3F)cn2)c2cc(C(=O)N3CCOCC3)ccc12 (stereo not shown) [Example 290, (1-(5-(5-((Cyclopropylmethyl)amino)-2-fluorophenyl)pyrimidin-2-yl)-3-(methylsulfinyl)-1H-indol-6-yl)(morpholino)methanone]	97%
CCNc1ccc(F)c(-c2cnc(-n3cc([S+](C)[O-])c4ccc(C(=O)N5CCOCC5)cc43)nc2)c1 (stereo not shown) [Example 292, (1-(5-(5-(Ethylamino)-2-fluorophenyl)pyrimidin-2-yl)-3-(methylsulfinyl)-1H-indol-6-yl)(morpholino)methanone]	91%
